Key:
[1] = target: T1, D2 receptor (long isoform, D2L) (Rattus norvegicus, UniProt P61169); settings: competition for [3H]methylspiperone binding
Protocol: (§1) A 2.4-kb Xba I-Xho I fragment containing the entire coding region and most of the D2 receptor cDNA was excised from the pBluescript clone and ligated into the corresponding restriction sites of the pEUK-C1 vector (Clontech, Palo Alto, Calif.) The resulting plasmid, pEUK-D2L, was then transfected into COS-7 cells using a modified CaPO4 precipitation method (Clontech). The cells were treated with 3 mM sodium butyrate after 48 hr and were harvested after 72 hr.

[2] = target: T1, D2 receptor (long isoform, D2L); experiment: biochemical; settings: transfected COS-7 cell membranes
Protocol: as §1

T1 sequence (P61169 whole entry, canonical isoform): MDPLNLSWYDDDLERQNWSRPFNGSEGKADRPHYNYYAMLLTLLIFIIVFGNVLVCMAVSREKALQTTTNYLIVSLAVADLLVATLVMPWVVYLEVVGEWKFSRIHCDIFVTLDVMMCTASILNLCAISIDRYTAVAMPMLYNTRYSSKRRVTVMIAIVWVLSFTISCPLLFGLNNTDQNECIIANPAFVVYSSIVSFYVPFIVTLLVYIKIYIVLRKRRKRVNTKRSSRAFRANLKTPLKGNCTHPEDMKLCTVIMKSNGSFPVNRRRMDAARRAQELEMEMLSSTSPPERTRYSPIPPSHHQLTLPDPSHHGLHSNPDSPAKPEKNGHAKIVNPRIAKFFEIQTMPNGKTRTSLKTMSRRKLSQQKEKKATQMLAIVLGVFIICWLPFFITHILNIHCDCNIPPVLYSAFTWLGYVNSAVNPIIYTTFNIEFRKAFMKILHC

NCCc1ccc(O)c(O)c1 [Dopamine] was tested, and the “effect of guanine nucleotides on competition curve” value ([1]; data not shown) was “not significantly affected by guanine nucleotides” and the “Hill coefficient of competition curve” value ([1]; transfected COS-7 cell membranes) was “≈ 1”.
CN1CN(c2ccccc2)C2(CCN(CCCC(=O)c3ccc(F)cc3)CC2)C1=O [[3H]methylspiperone] gave a Kd ([2]; affinity of [3H]methylspiperone saturation binding, mean ± SEM) of 0.0621 ± 0.0021 nM and a Kd ([2]; calculated KD of [3H]methylspiperone binding (Scatchard), one experiment representative of three (FIG. 2A)) of 0.0641 nM.
